{
  "source": "ChEMBL document CHEMBL1201862",
  "about": "“PubChem BioAssay data set” (2004)",
  "key": {"[1]": {"molecular_target": "Peroxisome proliferator-activated receptor gamma/Nuclear receptor coactivator 1 (Homo sapiens, UniProt P37231)", "experiment": "(§1) TR-FRET dose response biochemical High Throughput Screening assay for agonists of the steroid receptor coactivator 1 (SRC-1) recruitment by the peroxisome proliferator-activated receptor gamma (PPAR gamma): non-selective agonists. [Related pubchem assays (depositor defined):AID1300, AID1808, AID504735, AID631]", "assay_type": "protein assay"}, "[2]": {"molecular_target": "Peroxisome proliferator-activated receptor gamma/Nuclear receptor coactivator 3 (Homo sapiens, UniProt P37231)", "sequence (P37231 whole entry)": "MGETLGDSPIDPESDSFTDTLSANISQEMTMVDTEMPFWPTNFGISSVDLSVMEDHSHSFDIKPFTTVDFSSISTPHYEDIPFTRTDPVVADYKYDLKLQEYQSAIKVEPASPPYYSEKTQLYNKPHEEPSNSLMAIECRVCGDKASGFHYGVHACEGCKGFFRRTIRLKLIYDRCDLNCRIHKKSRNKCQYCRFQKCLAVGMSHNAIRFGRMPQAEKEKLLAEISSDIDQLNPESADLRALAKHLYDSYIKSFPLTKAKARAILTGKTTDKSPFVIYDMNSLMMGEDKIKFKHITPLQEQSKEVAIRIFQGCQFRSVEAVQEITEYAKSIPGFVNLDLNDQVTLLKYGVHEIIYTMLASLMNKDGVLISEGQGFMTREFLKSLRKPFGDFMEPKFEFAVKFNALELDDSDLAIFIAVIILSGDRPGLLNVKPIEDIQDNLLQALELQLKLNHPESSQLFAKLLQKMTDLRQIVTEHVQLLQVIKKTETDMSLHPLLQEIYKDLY", "sequence (Q9Y6Q9 whole entry, further chain)": "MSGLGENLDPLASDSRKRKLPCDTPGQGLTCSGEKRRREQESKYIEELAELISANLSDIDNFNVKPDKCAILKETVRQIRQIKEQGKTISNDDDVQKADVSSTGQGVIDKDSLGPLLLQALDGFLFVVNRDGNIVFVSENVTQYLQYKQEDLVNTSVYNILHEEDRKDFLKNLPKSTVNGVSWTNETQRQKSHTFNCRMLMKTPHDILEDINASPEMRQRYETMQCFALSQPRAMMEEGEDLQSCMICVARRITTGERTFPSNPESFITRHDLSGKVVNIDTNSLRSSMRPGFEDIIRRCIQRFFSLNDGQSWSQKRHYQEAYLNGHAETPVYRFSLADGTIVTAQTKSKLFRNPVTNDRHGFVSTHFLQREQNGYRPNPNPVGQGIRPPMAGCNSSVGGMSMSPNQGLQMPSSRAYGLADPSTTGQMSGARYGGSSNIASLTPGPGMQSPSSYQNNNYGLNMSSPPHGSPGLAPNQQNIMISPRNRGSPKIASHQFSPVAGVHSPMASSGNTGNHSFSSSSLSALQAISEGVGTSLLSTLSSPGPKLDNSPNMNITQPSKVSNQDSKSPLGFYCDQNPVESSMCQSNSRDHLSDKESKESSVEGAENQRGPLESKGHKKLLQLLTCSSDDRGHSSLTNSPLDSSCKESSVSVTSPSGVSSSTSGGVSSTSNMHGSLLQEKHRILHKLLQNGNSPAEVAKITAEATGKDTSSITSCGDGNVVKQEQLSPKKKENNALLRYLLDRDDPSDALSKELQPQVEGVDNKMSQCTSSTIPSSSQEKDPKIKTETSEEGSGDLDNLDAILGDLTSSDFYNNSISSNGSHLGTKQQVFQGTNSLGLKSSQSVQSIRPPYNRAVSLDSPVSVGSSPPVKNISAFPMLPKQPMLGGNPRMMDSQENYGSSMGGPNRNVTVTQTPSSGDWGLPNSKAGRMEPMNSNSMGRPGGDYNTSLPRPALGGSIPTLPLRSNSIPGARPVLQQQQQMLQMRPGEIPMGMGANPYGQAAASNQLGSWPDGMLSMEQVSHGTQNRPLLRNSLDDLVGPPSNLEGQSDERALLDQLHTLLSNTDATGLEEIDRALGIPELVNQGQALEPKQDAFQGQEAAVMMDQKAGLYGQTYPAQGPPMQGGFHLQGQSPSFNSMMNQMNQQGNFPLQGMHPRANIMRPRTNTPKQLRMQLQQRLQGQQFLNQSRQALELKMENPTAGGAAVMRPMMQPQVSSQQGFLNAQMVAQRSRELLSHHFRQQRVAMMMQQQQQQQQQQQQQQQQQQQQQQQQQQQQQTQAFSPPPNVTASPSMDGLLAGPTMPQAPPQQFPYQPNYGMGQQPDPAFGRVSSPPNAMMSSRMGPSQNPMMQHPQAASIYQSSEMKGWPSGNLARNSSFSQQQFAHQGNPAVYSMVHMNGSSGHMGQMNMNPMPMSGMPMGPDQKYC", "experiment": "as §1, with “3 (SRC-3)” for “1 (SRC-1)”, “assays: 1301 (Confirmation screen.), 1048 (Primary screen.)]” for “assays (depositor defined):AID1300, AID1808, AID504735, AID631]”", "assay_type": "functional"}, "[3]": {"molecular_target": "Peroxisome proliferator-activated receptor gamma/Nuclear receptor coactivator 2 (Homo sapiens, UniProt P37231)", "experiment": "TR-FRET dose response biochemical High Throughput Screening assay for agonists of the steroid receptor coactivator 2 (SRC-2) recruitment by the peroxisome proliferator-activated receptor gamma (PPAR gamma): non-selective agonists. [Related pubchem assays: 1297, 1032 ]", "assay_type": "functional"}, "Hexokinase HKDC1": {"molecular_target": "Hexokinase HKDC1 (Homo sapiens, UniProt Q2TB90)", "sequence (Q2TB90 whole entry)": "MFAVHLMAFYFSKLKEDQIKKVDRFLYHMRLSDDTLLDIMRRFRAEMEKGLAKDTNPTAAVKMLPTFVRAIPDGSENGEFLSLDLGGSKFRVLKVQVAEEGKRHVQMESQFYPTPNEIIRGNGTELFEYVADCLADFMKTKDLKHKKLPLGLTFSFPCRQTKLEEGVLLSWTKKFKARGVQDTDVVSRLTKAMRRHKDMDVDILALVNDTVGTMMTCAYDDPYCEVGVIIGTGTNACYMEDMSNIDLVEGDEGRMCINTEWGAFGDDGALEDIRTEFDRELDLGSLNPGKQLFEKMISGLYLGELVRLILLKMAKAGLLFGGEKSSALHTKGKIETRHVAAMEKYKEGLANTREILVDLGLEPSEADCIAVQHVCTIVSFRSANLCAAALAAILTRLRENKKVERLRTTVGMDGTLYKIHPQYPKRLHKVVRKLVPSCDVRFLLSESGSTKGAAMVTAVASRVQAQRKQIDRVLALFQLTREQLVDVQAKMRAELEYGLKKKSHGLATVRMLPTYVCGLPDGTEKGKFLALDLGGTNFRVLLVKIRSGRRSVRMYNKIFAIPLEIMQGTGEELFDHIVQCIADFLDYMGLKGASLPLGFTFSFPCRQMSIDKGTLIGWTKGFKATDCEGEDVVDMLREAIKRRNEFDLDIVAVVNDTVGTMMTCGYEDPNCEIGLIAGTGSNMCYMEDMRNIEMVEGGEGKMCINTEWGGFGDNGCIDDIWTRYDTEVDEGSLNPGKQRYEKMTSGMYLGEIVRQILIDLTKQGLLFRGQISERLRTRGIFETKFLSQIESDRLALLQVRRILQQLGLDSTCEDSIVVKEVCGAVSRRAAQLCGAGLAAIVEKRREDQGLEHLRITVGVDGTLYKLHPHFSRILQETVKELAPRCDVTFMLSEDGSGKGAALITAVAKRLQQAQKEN", "experiment": "activation of HKDC1 glucose phosphorylation – biochemical, W721R variant, dose response (AID 504730)", "assay_type": "functional"}, "Hexokinase-1": {"molecular_target": "Hexokinase-1 (Homo sapiens, UniProt P19367)", "experiment": "HK1 enzyme activation by HKDC1 hits – biochemical, selectivity assay for HKDC1 activator project, dose response (AID 504762)", "assay_type": "functional"}, "[4]": {"molecular_target": "26S proteasome non-ATPase regulatory subunit 14 (Homo sapiens, UniProt O00487)", "sequence (O00487 whole entry)": "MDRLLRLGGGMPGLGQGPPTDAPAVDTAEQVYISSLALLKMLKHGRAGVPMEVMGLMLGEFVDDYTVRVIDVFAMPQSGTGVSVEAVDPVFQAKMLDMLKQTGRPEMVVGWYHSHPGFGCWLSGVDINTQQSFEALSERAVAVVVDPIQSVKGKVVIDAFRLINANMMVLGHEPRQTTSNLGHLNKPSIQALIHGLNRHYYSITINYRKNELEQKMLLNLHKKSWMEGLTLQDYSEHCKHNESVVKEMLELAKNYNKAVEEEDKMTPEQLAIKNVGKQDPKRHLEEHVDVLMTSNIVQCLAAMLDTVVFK", "experiment": "inhibition of proteasome subunit RPN11 – biochemical, fluorescence polarization, uHTS hits, confirmation (AID 602368)", "assay_type": "functional"}, "[5]": {"molecular_target": "72 kDa type IV collagenase (Homo sapiens, UniProt P08253)", "sequence (P08253 whole entry)": "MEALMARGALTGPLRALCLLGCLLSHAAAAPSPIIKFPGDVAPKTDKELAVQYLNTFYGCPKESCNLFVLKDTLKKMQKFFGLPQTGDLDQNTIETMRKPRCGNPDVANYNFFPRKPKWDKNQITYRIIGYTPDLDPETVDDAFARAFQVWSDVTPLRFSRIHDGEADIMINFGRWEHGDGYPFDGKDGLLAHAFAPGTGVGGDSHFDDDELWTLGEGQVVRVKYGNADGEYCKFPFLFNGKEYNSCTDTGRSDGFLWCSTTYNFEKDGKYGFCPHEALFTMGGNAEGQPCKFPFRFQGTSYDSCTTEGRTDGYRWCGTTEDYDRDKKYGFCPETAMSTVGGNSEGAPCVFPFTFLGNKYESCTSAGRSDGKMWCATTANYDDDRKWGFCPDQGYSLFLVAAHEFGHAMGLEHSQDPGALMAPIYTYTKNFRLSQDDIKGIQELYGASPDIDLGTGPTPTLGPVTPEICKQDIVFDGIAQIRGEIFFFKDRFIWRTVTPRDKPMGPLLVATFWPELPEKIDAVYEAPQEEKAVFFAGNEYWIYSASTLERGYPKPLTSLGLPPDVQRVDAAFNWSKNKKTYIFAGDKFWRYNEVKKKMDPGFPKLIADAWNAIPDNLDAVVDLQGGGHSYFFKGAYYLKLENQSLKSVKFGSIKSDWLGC", "experiment": "Dose Response validation of uHTS RPN11 inhibitor hits using a MMP-2 Fluorescence assay.", "assay_type": "functional"}, "Prothrombin": {"molecular_target": "Prothrombin (Bos taurus, UniProt P00735)", "experiment": "thrombin protease inhibitors – biochemical, fluorescence polarization, uHTS hits, dose response (AID 602369)", "assay_type": "functional"}, "Cytochrome P450 2C19": {"molecular_target": "Cytochrome P450 2C19 (Homo sapiens, UniProt P33261)", "sequence (P33261 whole entry)": "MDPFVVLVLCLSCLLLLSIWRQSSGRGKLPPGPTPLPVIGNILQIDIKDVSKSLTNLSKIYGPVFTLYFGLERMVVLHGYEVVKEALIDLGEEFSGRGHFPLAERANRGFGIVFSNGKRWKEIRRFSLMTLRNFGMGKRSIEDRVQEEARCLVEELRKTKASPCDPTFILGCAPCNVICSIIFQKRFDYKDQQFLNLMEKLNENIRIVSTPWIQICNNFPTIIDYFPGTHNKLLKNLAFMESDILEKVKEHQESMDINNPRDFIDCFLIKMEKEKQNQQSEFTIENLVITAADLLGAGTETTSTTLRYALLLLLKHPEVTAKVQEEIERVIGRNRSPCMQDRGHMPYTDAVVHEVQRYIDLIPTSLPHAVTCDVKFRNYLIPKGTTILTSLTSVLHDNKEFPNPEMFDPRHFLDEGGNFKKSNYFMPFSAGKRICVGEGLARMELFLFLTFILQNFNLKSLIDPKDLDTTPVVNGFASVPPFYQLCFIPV", "experiment": "Cytochrome panel assay with activity outcomes. Panel member name: p450-cyp2c19 Compounds with AC50 equal or less than 10 uM are considered active", "assay_type": "functional", "settings": "read-out: AC50"}, "Cytochrome P450 1A2": {"molecular_target": "T1, Cytochrome P450 1A2 (Homo sapiens, UniProt P05177)", "T1 sequence (P05177 whole entry)": "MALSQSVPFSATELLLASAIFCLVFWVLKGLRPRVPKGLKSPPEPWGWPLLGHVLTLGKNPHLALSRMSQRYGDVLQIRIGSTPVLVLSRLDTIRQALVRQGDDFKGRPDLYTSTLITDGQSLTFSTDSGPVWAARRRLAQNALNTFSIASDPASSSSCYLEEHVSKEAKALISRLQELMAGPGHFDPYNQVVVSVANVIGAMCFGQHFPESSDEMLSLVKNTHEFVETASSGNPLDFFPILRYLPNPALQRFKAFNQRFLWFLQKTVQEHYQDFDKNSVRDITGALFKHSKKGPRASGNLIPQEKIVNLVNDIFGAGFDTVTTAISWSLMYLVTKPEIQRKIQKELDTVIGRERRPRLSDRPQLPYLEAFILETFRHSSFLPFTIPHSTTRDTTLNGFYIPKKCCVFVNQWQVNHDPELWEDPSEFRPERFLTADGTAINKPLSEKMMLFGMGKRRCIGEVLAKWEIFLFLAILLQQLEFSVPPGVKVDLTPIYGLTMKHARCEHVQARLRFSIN"}, "Cytochrome P450 3A4": {"molecular_target": "Cytochrome P450 3A4 (Homo sapiens, UniProt P08684)", "sequence (P08684 whole entry)": "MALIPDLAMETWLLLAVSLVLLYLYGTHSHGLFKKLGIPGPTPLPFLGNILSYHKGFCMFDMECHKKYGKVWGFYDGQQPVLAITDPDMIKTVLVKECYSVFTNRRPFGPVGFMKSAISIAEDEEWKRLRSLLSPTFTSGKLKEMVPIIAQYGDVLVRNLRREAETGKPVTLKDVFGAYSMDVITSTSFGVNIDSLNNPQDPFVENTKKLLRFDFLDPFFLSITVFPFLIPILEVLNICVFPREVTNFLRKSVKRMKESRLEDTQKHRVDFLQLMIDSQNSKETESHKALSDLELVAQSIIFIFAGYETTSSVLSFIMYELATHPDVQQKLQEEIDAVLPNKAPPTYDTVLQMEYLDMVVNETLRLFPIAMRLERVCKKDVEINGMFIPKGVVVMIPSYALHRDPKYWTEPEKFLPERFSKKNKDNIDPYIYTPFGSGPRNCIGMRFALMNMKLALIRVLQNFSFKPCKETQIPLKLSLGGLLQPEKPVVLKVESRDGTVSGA"}, "Cytochrome P450 2C9": {"molecular_target": "Cytochrome P450 2C9 (Homo sapiens, UniProt P11712)"}, "Escherichia coli": {"system": "Escherichia coli", "experiment": "microbe, parasite or virus in culture"}, "Bcl-2-related protein A1": {"molecular_target": "T2, Bcl-2-related protein A1 (Mus musculus, UniProt Q07440)", "T2 sequence (Q07440 whole entry)": "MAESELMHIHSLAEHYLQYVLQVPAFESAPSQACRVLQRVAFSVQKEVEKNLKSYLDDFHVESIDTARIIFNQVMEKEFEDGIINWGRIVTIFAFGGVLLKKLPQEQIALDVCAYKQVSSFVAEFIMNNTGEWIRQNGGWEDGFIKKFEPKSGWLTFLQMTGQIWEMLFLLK", "assay_type": "functional"}, "[6]": {"molecular_target": "T3, Ubiquitin-conjugating enzyme E2 N (Homo sapiens, UniProt P61088)", "T3 sequence (P61088 whole entry)": "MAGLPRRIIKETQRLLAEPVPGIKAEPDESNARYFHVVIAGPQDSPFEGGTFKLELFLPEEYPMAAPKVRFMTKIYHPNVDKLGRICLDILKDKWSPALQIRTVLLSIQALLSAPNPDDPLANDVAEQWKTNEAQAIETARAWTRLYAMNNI", "assay_type": "functional"}, "[7]": {"molecular_target": "T3, Ubiquitin-conjugating enzyme E2 N", "assay_type": "functional", "remark": "listed apart in the source"}},
  "note": "Activity calls are given as the source filed them.",
  "data": [
    {"smiles": "CCOC(=O)CSc1cc(=O)n(CC)c2ccccc12", "values": [
      {"measurement": "EC50", "setting": "[1]", "value": "> 79.4 µM (inactive)"},
      {"measurement": "EC50", "setting": "[2]", "value": "> 79.4 µM (not active)"},
      {"measurement": "EC50", "setting": "[3]", "value": "> 79.4 µM (not active)"}
    ]},
    {"smiles": "COc1ccc(-c2[nH]c(-c3ccc(SC)cc3)nc2SCC(=O)Nc2nccs2)cc1", "values": [
      {"measurement": "EC50", "setting": "Hexokinase HKDC1", "value": "10.9 µM (active)"},
      {"measurement": "EC50", "setting": "Hexokinase-1", "value": "16.3 µM (active)"},
      {"measurement": "IC50", "setting": "[4]", "value": "19.6 µM (active)"},
      {"measurement": "IC50", "setting": "[5]", "value": "> 100 µM (inactive)"},
      {"measurement": "IC50", "setting": "Prothrombin", "value": "49.9 µM (active)"}
    ]},
    {"smiles": "Cc1cnc(CNc2cc(-c3ccccc3C(F)(F)F)ncn2)cn1", "values": [
      {"measurement": "AC50", "setting": "Cytochrome P450 2C19", "value": "39.8 µM (inconclusive)"},
      {"measurement": "AC50", "setting": "Cytochrome P450 1A2", "value": "25.1 µM (inconclusive)"},
      {"measurement": "AC50", "setting": "Cytochrome P450 3A4", "value": "inconclusive"},
      {"measurement": "AC50", "setting": "Cytochrome P450 2C9", "value": "inconclusive"}
    ]},
    {"smiles": "Cc1ccc(S(=O)(=O)CCNC(=O)Cc2ccc(Cl)cc2)cc1", "values": [
      {"measurement": "AC50", "setting": "Escherichia coli", "value": "46.1 µM (active)"}
    ]},
    {"smiles": "CCc1ccc2c(COC(=O)C3CC(=O)N(CCc4ccccc4)C3)cc(=O)oc2c1", "note": "(configuration not stated)", "values": [
      {"measurement": "AC50", "setting": "Escherichia coli", "value": "133 µM (active)"}
    ]},
    {"smiles": "COCCNc1nc2c(-c3cccc(C(F)(F)F)c3)nnn2c2ccccc12", "values": [
      {"measurement": "IC50", "setting": "Bcl-2-related protein A1", "value": "> 20 µM (inactive)"},
      {"measurement": "IC50", "setting": "[6]", "value": "10.3 µM (active)"},
      {"measurement": "IC50", "setting": "[7]", "value": "> 20 µM (inactive)"}
    ]}
  ]
}
